For ten compounds, solubility and EC50 results are on record in US10913720B2, “Benzyloxypyridylcyclopropanecarboxylic acids, pharmaceutical compositions and uses thereof” (Boehringer Ingelheim International GmbH, priority 2017, dated 2021).

Each structure is given as a SMILES string. Values after ≈ are worked out from the molar mass of the structure shown. Read-outs that look alike come from different tables or passages of the source.

Data set [1] is described as follows: Aqueous solubility (buffer vs acetonitrile/water, LC-UV). It counts as physicochemical. Particulars: kinetic from dmso stock, 2.5% DMSO. How it is done: The aqueous solubility of the compounds of the invention is determined by comparing the amount dissolved in buffer to the amount in an acetonitrile/water (1/1) solution. Starting from a 10 mM DMSO stock solution aliquots are diluted with acetonitrile/water (1/1) or buffer, respectively. After 24 h of shaking, the solutions are filtrated and analyzed by LC-UV. The amount dissolved in buffer is compared to the amount in the acetonitrile solution.
Solubility is usually being measured from 0.001 to 0.125 mg/mL at a DMSO concentration of 2.5%. If more than 90% of the compound is dissolved in buffer, the value is marked with “>”.

Data set [2] concerns the target human GPR40 receptor (Homo sapiens, UniProt O14842). The data set is described as follows: IP1 accumulation measurements using the IPOne assay system. It counts as cell-based. Particulars: 1321N1 cells stably expressing human GPR40; 1 h stimulation at 37° C. How it is done: IP1 accumulation measurements using the IPOne assay system—1321N1 cells stably expressing human GPR40 receptor (Euroscreen, Belgium) are seeded 24 h before the assay in white 384-well plates in culture medium containing 10% FCS, 1% Na-Pyruvate and 400 μg/mL G418. IP1 is assayed according to the manufacturer's description (Cisbio Bioassays, France). In brief, the assay is started by substitution of the culture medium by stimulation buffer (Hepes 10 mM, CaCl2) 1 mM, MgCl2 0.5 mM, KCl 4.2 mM, NaCl 146 mM, glucose 5.5 mM and LiCl 50 mM, pH 7.4). Cells are stimulated for 1 h at 37° C., 5% CO2 by addition of the compounds that are diluted in stimulation buffer containing LiCl. Assays are stopped by adding HTRF-conjugates (IP1-d2 and Anti-IP1 cryptate Tb) and lysis buffer, provided by the manufacturer. After an incubation time of 1 h at room temperature plates are measured using an EnVision™, Perkin Elmer. The obtained fluorescence ratios at 665/615 […] are then used to calculate the pEC50 values using Assay Explorer 3.3 Software (Accelrys, Inc.) by interpolation using an IP1 reference curve and subsequent sigmoidal curve fitting allowing for a variable hill slope.

Setting [3] is: pH 2.2, 24 h shaking, read-out: Solubility at pH 2.2.
The mark [4] stands for this setting: pH 6.8, 24 h shaking, read-out: Solubility at pH 6.8.

human GPR40 receptor, sequence (O14842 whole entry): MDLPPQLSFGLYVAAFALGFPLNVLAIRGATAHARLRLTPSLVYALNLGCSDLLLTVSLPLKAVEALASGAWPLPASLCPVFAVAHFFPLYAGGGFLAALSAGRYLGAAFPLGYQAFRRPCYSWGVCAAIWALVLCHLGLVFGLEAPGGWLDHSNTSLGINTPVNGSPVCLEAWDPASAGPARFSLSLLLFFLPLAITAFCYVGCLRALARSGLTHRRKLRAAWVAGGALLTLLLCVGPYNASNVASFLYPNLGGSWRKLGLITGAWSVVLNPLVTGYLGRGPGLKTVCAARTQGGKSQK

For the compound `Cc1cc(OCCC(C)(C)O)cc(C)c1-c1cccc(COc2ccc([C@H]3C[C@@H]3C(=O)O)nc2)c1` [Example 3, (1S,2S)-2-{5-[4′-(3-Hydroxy-3-methyl-butoxy)-2′,6′-dimethyl-biphenyl-3-ylmethoxy]-pyridin-2-yl}-cyclopropanecarboxylic Acid], the solubility at 24 h amounted to 0.024 mg/mL (≈ 50.5 µM) in data set [1] (setting [3]) and 0.04 mg/mL (≈ 84.1 µM) in data set [1] (setting [4]). In data set [2], a half-maximal effect (EC50) was put at 19 nM.
Regarding `Cc1cc(-c2nnn(C)n2)cc(C)c1-c1ccc(F)c(COc2ccc([C@H]3C[C@@H]3C(=O)O)nc2)c1` [Example 17, (1S,2S)-2-{5-[4-Fluoro-2′,6′-dimethyl-4′-(2-methyl-2H-tetrazol-5-yl)-biphenyl-3-ylmethoxy]-pyridin-2-yl}-cyclopropanecarboxylic Acid], in data set [2], the midpoint of the response, the EC50, lay at 3 nM.
`Cc1cc(-c2nnn(C)n2)cc(C)c1-c1cccc(COc2ccc([C@H]3C[C@@H]3C(=O)O)nc2)c1` [Example 1, (1S,2S)-2-{5-[2′,6′-Dimethyl-4′-(2-methyl-2H-tetrazol-5-yl)-biphenyl-3-ylmethoxy]-pyridin-2-yl}-cyclopropanecarboxylic Acid]: the solubility at 24 h in data set [1] (setting [3]) is 0.007 mg/mL (≈ 15.4 µM); in data set [1] (setting [4]), 0.019 mg/mL (≈ 41.7 µM). Moreover, in data set [2], the EC50 is 5 nM.
Compound `Cc1cc(OCC2(C)COC2)cc(C)c1-c1ccc(F)c(COc2ccc([C@H]3C[C@@H]3C(=O)O)nc2)c1` [Example 23, (1S,2S)-2-{5-[4-Fluoro-2′,6′-dimethyl-4′-(3-methyl-oxetan-3-ylmethoxy)-biphenyl-3-ylmethoxy]-pyridin-2-yl}-cyclopropanecarboxylic Acid] yielded an EC50 in data set [2] of 24 nM.
On to `Cc1cc(OCCC(C)(C)O)cc(C)c1-c1ccc(F)c2c1CC[C@H]2Oc1ccc([C@H]2C[C@@H]2C(=O)O)cc1` [Example 17 in WO 2013/178575, reference compound], for which the solubility at 24 h in data set [1] (setting [3]) and in data set [1] (setting [4]) was under 0.001 mg/mL throughout.
In data set [2], `Cc1cc(-c2ccnn2C)cc(C)c1-c1ccc(F)c(COc2ccc([C@H]3C[C@@H]3C(=O)O)nc2)c1` [Example 21, (1S,2S)-2-{5-[4-Fluoro-2′,6′-dimethyl-4′-(2-methyl-2H-pyrazol-3-yl)-biphenyl-3-ylmethoxy]-pyridin-2-yl}-cyclopropanecarboxylic Acid] displayed an EC50 of 6 nM.
Turning to `Cc1cc(-c2nnn(C)n2)cc(C)c1-c1ccc(F)c2c1CC[C@H]2Oc1ccc([C@H]2C[C@@H]2C(=O)O)cc1` [Example 45 in WO 2013/178575, reference compound], the solubility at 24 h in data set [1] (setting [3]) and in data set [1] (setting [4]) was under 0.001 mg/mL throughout.
On to `COc1cnc(-c2ccc(-c3cc(COc4ccc([C@H]5C[C@@H]5C(=O)O)nc4)ccc3C(F)(F)F)cc2)nc1` [Example 28, (1S,2S)-2-{5-[4′-(5-Methoxy-pyrimidin-2-yl)-6-trifluoromethyl-biphenyl-3-ylmethoxy]-pyridin-2-yl}-cyclopropanecarboxylic Acid], for which a half-maximal response in data set [2] (EC50) required 4 nM.
The same measure, in the same setting: the figure for `Cc1cc(OCCC(C)(C)O)cc(C)c1-c1cc(COc2ccc([C@H]3C[C@@H]3C(=O)O)nc2)c(F)cc1F` [Example 26, (1S,2S)-2-{5-[4,6-Difluoro-4′-(3-hydroxy-3-methyl-butoxy)-2′,6′-dimethyl-biphenyl-3-ylmethoxy]-pyridin-2-yl}-cyclopropanecarboxylic Acid] is 12 nM.
Still for that read-out and setting: the result for `Cc1cc(-c2nnn(CC(C)(C)O)n2)cc(C)c1-c1ccc(F)c(COc2ccc([C@H]3C[C@@H]3C(=O)O)nc2)c1` [Example 18, (1S,2S)-2-(5-{4-Fluoro-4′-[2-(2-hydroxy-2-methyl-propyl)-2H-tetrazol-5-yl]-2′,6′-dimethyl-biphenyl-3-ylmethoxy}-pyridin-2-yl)-cyclopropanecarboxylic Acid] reads 6 nM.

A word on the solubility: it is how much of the substance goes into solution per volume. Usually EC50 stands for the concentration giving half of the maximal effect. Low readings indicate higher potency in that assay, high ones lower potency in that assay.
